Assays:
[1] = system: PBMCs (T cell IFN-γ production); conditions: critically ill COVID 19 disease patients, reference 18; cited from earlier work
[2] = system: SARS-CoV-2
[3] = system: peripheral blood mononuclear cells (T cell IFN-γ production); assay type: cell-based, human
[4] = system: lymphopenia in COVID-19; conditions: preliminary studies, reference 24; cited from earlier work
[5] = system: sepsis-induced lymphopenia; conditions: clinical trial, reference 54; cited from earlier work
[6] = system: PBMCs (monocyte TNF-α production); assay type: cell-based, human
[7] = system: invasive fungal soft tissue infection (Trichosporon asahii, Fusarium, Saksenaea); assay: IL-7 immunotherapy in a patient with intractable fungal wound sepsis (clinical course, lymphocyte count); assay type: in vivo, human
Description: Twenty-four hours later, the dosage was increased to 10 μg/kg and continued every 3-4 days for 7 doses. […] As illustrated by serial pictures of the wound, the most notable change following initiation of IL-7 was to slow the progression of the invasive soft tissue necrosis (FIG. 28B, green arrows).
In addition to decreased infectious spread and fungal proliferation, with improved wound healing and healthier-appearing tissue margins, clinical indicators of severity of disease improved within days of IL-7 treatment initiation with improvement of the fever curve, tachycardia, and tachypnea (FIG. 30). Laboratory evidence of resolution of the fungal invasion included progressive decreases in total white blood cell count and increasing absolute lymphocyte counts (FIG. 28A). The patient's absolute lymphocyte count increased >6-fold from a low of 600 lymphocytes/μL to >4000 lymphocytes/μL (upper limit of normal for absolute lymphocyte counts is 3500). Of note, the increase in the patient's absolute lymphocyte count was likely due to both the effect of IL-7 in inducing lymphocyte proliferation and to the resolution of the fungal infection.

[8] = Serial plasma cytokines, ProcartaPlex 9-plex Luminex panel (Example 5); assay type: in vivo, human; conditions: plasma of critically ill COVID-19 patient

Q: Which results are given for “IL-7: recombinant human IL-7, immunoadjuvant and potent T cell activator; R&D Systems ex vivo, RevImmune for patients”?
A: lymphocyte IFN-γ production on ex vivo addition of IL-7 to PBMCs [1]: doubled; increase of absolute lymphocyte count (ALC) ([2]; COVID-19 patient after IL-7): ~10 fold; discharged home, day of hospitalization ([2]; after IL-7 therapy): 24 days; mechanical ventilation discontinued, day after ICU admission ([2]; after initiation of IL-7 therapy): 15 days; T cell function on coincubation with both dexamethasone and IL-7 [3]: restored; increase of ALCs in COVID-19 disease patients treated with IL-7 [4]: two- to three-fold; tolerability of IL-7 in COVID-19 disease patients [4]: well tolerated; effect on sepsis-induced lymphopenia [5]: reversed sepsis-induced lymphopenia; tolerability of IL-7 in patients with sepsis [5]: well tolerated; mean increase in LPS-induced TNF-α-producing cells after IL-7 coincubation ([6]; COVID-19 patient PBMCs, LPS + IL-7, not statistically significant): 101%; effect of IL-7 on monocyte TNF-α production ([6]; COVID-19 patients, LPS vs LPS + IL-7, n=25): did not increase; tolerability of IL-7 test dose ([7]; 3 μg/kg ideal body weight intramuscularly, day 59 postinjury): well tolerated; onset of significant improvement of clinical status after initiation of IL-7 ([7]; 10 μg/kg every 3-4 days for 7 doses after test dose): 4 to 7 days; definitive closure of open wounds ([7]; after resolution of wound fungal infection, >700 cm^2): > 90%; absolute lymphocyte count reached ([7]; from a low of 600 lymphocytes/μL, upper limit of normal 3500): > 4000 lymphocytes/μL; increase of absolute lymphocyte count ([7]; fungal wound sepsis patient on IL-7): > 6 fold; IFN-γ plasma concentration ([8]; Post IL-7, Day 12): Undetectable; IL-1β plasma concentration ([8]; Post IL-7, Day 12): Undetectable; IL-2 plasma concentration ([8]; Post IL-7, Day 12): Undetectable; IL-6 plasma concentration ([8]; Post IL-7, Day 12): 30 pg/mL; IL-10 plasma concentration ([8]; Post IL-7, Day 12): 2.71 pg/mL; IL-12 plasma concentration ([8]; Post IL-7, Day 12): Undetectable; IL-17 plasma concentration ([8]; Post IL-7, Day 12): 0.14 pg/mL; Tumor necrosis factor-α plasma concentration ([8]; Post IL-7, Day 12): Undetectable; IFN-γ plasma concentration ([8]; Post IL-7, Day 21): Undetectable; IL-1β plasma concentration ([8]; Post IL-7, Day 21): Undetectable; IL-2 plasma concentration ([8]; Post IL-7, Day 21): Undetectable; IL-6 plasma concentration ([8]; Post IL-7, Day 21): 6 pg/mL; IL-10 plasma concentration ([8]; Post IL-7, Day 21): 0.83 pg/mL; IL-12 plasma concentration ([8]; Post IL-7, Day 21): Undetectable; IL-17 plasma concentration ([8]; Post IL-7, Day 21): 0.12 pg/mL; Tumor necrosis factor-α plasma concentration ([8]; Post IL-7, Day 21): Undetectable

— patent publication US20220091133A1, “METHODS AND ASSAYS FOR IMMUNE PHENOTYPING” (Washington University, priority 2020, published 2022)
